Results reported in publication PMC12441861, “Next-Generation Lipid Prodrugs Orally Deliver Tenofovir via Enhanced Chylomicron Incorporation” (ACS Pharmacology & Translational Science, 2025).
Like-named read-outs stand apart in the source and are kept apart here. Values belong to the compound of their own block, whether it stands above or below them.

Assays:
Cytotoxicity, MTT assay = details: human, TZM-bl cells
[1] = system: Caco-2 cell total membrane; assay: Drug in Caco-2 total membrane fraction versus CM fraction; assay type: in vitro ADME, human
Source text: Having completed this initial prodrug screening, we next sought to evaluate their ability to incorporate into CMs in vitro. For a lysoglycerolipid prodrug (e.g., TXL and BCV) to be packaged into CMs, it must first be transported into intestinal enterocytes, like Caco-2 cells, by intercalating into the outer leaflet of the plasma membrane before flipping (either actively or passively) to the inner leaflet. Subsequent membrane desorption facilitates intraenterocyte diffusion to the ER and Golgi, where CM are produced. Accordingly, we hypothesized that, even though high lipophilicity should drive prodrug association with CMs, these low hydrophilicity compounds first need to get through the plasma membrane, which could create a kinetic barrier to CM incorporation. […] Proceeding with the CM production and isolation assay as described (Scheme ), cells were harvested in parallel, and the total membrane fraction was separated from other cellular components via centrifugation through a specialized filter provided with the Minute Plasma Membrane Protein Isolation and Cell Fractionation Kit from Invent Biotechnologies (cat No. SM-005). […]
Total membrane fractionation was performed using a Minute Plasma Membrane Protein Isolation and Cell Fractionation Kit from Invent Biotechnologies (cat No. SM-005). […] The clear supernatant was collected and analyzed using LC-MS/MS.

[2] = Metabolic stability in human liver microsomes; assay type: in vitro ADME; details: pH 7.4, read-out: Metabolic Stability HLM t1/2
Description: Assays employed human liver microsomes (HLMs, 20 mg/mL) from Xenotech. A 10 mM NADPH stock was prepared in deionized H2O, and test compounds were dissolved in 100% MeOH to a final concentration of 10 mM. The stock solutions were diluted to 500 μM in 100 mM potassium phosphate buffer (pH 7.4), keeping the final MeOH concentration below 0.2%. Reaction mixtures were prepared by combining 928 μL phosphate buffer, 55 μL liver microsomes, and the test compound solution to a final concentration of 3 μM. Verapamil was used as a positive control. The reactions were initiated with the addition of 110 μL of 10 mM NADPH. Aliquots were taken in duplicate at 0, 5, 10, 15, and 30 min, quenched with 100 μL of cold MeOH containing 2 μM internal standard (d 5-7-ethoxy coumarin), and centrifuged at 12,000 RCF for 5 min. The supernatants were then transferred to LC-MS vials for analysis. The average of each duplicate was normalized to the 0 min time point, representing 100% remaining (0% metabolism).

[3] = Cytotoxicity, ATP luminescence (Cell Titer Glow) assay; details: human, TZM-bl cells
[4] = Mouse oral PK and tissue distribution, fed state; assay type: in vivo; details: single oral dose 10 mg/kg, fed mice
Source text: Given the increased packaging of the CF3-modified lipids into CMs compared to their ω-unmodified congeners, we selected these compounds for PK studies in mice. We hypothesized that, following oral administration, our modified prodrugs would favor CM-mediated transport into the lymphatics over absorption into mesenteric veins feeding into the portal system. By circumventing direct transport to the liver, these prodrugs are expected to achieve elevated levels in the lung relative to the liver, as lymph empties into the jugular venous angle and mixes with blood en route to the pulmonary arteries (Figure ). For all mouse PK experiments, prodrugs were formulated in a 9:1 mixture of olive oil and ethanol, then administered to male C57BL/6 mice via oral gavage at a dose of 10 mg/kg. Organs (liver, lung, and plasma) were harvested at 1, 2, 4, 8, and 18 h postdose, per the protocol described by our groups previously. Concentrations of prodrug were quantified using LC-MS/MS after tissue homogenization, extraction, and sample preparation.
The compounds TXL, 15a, 15b, 21a, 21b, and a vehicle control were prepared at a concentration of 1 mg/mL in a 90:10 solution of olive oil (Sigma-Aldrich, cat. No. O1514) and 190-proof ethanol. The dosing for each mouse was calculated based on individual body weights to achieve a final dose of 10 mg/kg. For example, a 20 g mouse would receive 200 μL of the 1 mg/mL drug formulation, while a 25 g mouse would receive 250 μL.
In accordance with the American Chemical Society Guidelines to Publication of Chemical Research, we affirm the use of standard ethical practices when housing and handling research animals, as ensured by the Emory University’s Institutional Animal Care and Use Committee (IACUC) and the Division of Animal Resources (DAR) through a rigorous protocol review, amendment, and approval process. A total of 220 C57BL6/J male mice (aged 11–12 weeks, weight, 22–30 g) were used for these studies. Each mouse was weighed, recorded, and ear-clipped for identification. The dosing for each mouse was calculated based on individual body weights to achieve a final dose of 10 mg/kg. Animals were anesthetized using isoflurane gas before receiving a single dose of drug prepared as described above using a 22-gauge gavage needle attached to a calibrated syringe.
Time points for tissue collection were 1, 2, 4, 8, and 18 h for unfasted mice, and 1, 2, 4, 8, and 24 h for fasted mice. At each time point, the mice (n = 4 per compound per time point) were anesthetized using isoflurane and subjected to cardiac puncture for blood collection into EDTA-coated tubes. The collected blood samples were immediately placed on ice before the mice were humanely euthanized via cervical dislocation. Brain, liver, lungs, and kidneys were harvested, rinsed in PBS, and placed in prelabeled tubes. Tissues were flash-frozen in liquid nitrogen then transferred to dry ice for storage.
Blood samples were collected into EDTA-coated tubes and centrifuged at 400 RCF for 10 min at 4 °C to separate plasma from the cellular components. The plasma layer was carefully pipetted off and stored in separate prelabeled and preweighed tubes. All tissues were stored at −80 °C until time for processing.
Tissues were weighed (∼50 mg) into homogenization tubes and ACN containing a 10 μM ITSD was added to achieve a final solvent-to-tissue ratio of 4:1. Homogenization beads were added, and the tissues were processed (Biotage Lysera, part no. 19–060) using two 20 s pulses with a 10 s interval period. Homogenate was centrifuged at maximum speed for 1 h, supernatant collected and analyzed via LC-MS using the method described previously. For plasma samples, a 50 μL aliquot was added 200 μL of ACN containing ITSD. The mixture was vortexed thoroughly and then centrifuged to precipitate proteins, with the supernatant collected and analyzed via LC-MS. […]

[5] = Metabolic stability in mouse liver microsomes; assay type: in vitro ADME; details: pH 7.4, read-out: Metabolic Stability MLM t1/2
[6] = design: method as in Hostetler 2007; details: single oral dose, prodrug in lung and liver over 72 h; ref Hostetler 2007; cited from earlier work
[7] = ref Hostetler 2007; cited from earlier work
[8] = parent Cidofovir; ref Hostetler 2007; cited from earlier work

drug in membrane fraction ([1]; 20 h): undetectable
half-life at 3 µM [2]: > 2 h
SMILES: CCCCCCCCCCCCCCCCCCOC[C@H](COP(=O)(O)CO[C@H](C)Cn1cnc2c(N)ncnc21)OCc1ccccc1 [8d, Ammonium[(1R)-2-(6-aminopurin-9-yl)-1-methyl-ethoxy]methyl-[(2R)-2-benzyloxy-3-octadecoxy-propoxy]phosphinate]
CC50 at 48 h (Cytotoxicity, MTT assay): > 10 µM
membrane concentration compared with TXL ([1]; 8 h, n = 3): significantly greater concentrations in the membrane than TXL

Tmax ([4]; male, C57BL/6, mouse, liver, read-out: Liver Tmax): 4 h
Tmax ([4]; male, C57BL/6, mouse, lung, read-out: Lung Tmax): 8 h
Cmax ([4]; male, C57BL/6, mouse, plasma): 102 ng/mL
AUC(0-t) ([4]; male, C57BL/6, mouse, plasma, read-out: Plasma AUC0-18h): 1010 ng·h/mL
Tmax ([4]; male, C57BL/6, mouse, plasma, read-out: Plasma Tmax): 4 h
Liver AUC0-18h [4]: 133,000 h*ng/g
Liver Cmax [4]: 13,400 ng/g
Lung AUC0-18h [4]: 7,120 h*ng/g
Lung Cmax [4]: 585 ng/g
half-life at 3 µM [2]: > 2 h
half-life at 3 µM [5]: 1.52 h
SMILES: C[C@H](Cn1cnc2c(N)ncnc21)OCP(=O)(O)OCCCOCCCCCCCCCCCCCCCCCC(F)(F)F [15b, Ammonium[(1R)-2-(6-aminopurin-9-yl)-1-methyl-ethoxy]methyl-[3-(18,18,18-trifluorooctadecoxy)propoxy]phosphinate]
CC50 at 48 h [3]: > 1 µM

SMILES: CCCCCCCCCCCCCCCCOCCCOP(=O)(O)CO[C@H](CO)Cn1ccc(N)nc1=O [BCV, brincidofovir]
lung/liver AUC0–72h [6]: 0.04

SMILES: CCCCCCCCCCCCCCCCCCOCC(COP(=O)(O)COC(CO)Cn1ccc(N)nc1=O)OCc1ccccc1 (centres unmarked) [ODBG-CDV, 1-O-octadecyl-2-O-benzyl-sn-glycero-3-cidofovir]
increase in lung delivery compared to liver [7]: 13-fold increase in lung delivery compared to liver
Δ Oral Availability (% versus Parent) [8]: 32%
lung/liver AUC0–72h [6]: 2.05
